Test results reported in US20190150447A1, “CONDENSED HETEROCYCLIC COMPOUND” (Sumitomo Chemical Company, Limited, priority 2015, published 2019).

Tests used:
Type in all cases: in vivo
[1] = tested on: cotton aphid (Aphis gossypii); assay: Test Example 1: foliar spray on cucumber seedling against cotton aphid; details: 500 ppm; spray 10 mL/seedling on cucumber; all stages of life; after 5 days
Method: The test compounds is made to a formulation according to the method described in the Formulation Example 5, and thereto is added water containing 0.03 v/v % of a spreader to prepare a diluted solution containing a prescribed concentration of the test compound. Cucumber (Cucumis sativus) seedling (on the developmental stage of the second true leaf) is planted in a plastic cup, and approximately 30 heads of cotton aphid (Aphis gossypii) (all stages of life) are released onto the leaves of the cucumber. After 1 day, the diluted solutions were sprayed into the seedling in a ratio of 10 mL/seedling. After 5 days, the number of the surviving insects is examined and the controlling value is calculated by the following equation. Controlling value (%)={1−(Cb×Tai)/(Cai×Tb)}×100 wherein the symbols in the equation represent the following descriptions. Cb: Number of the test insects in untreated group; Cai: Number of the surviving insects at the time of the investigation in untreated group; Tb: Number of the test insects in treated group; Tai: Number of the surviving insects at the time of the investigation in treated group; Here the “untreated group” represents a group where the similar treatment procedure to that of the treated group except not using the test compound is done.

[2] = tested on: cabbage moth (Plutella xylostella); assay: Test Example 3: foliar spray on cabbage seedling against cabbage moth; details: 120 h, spray 20 mL/seedling on cabbage, second instar larvae, after 5 days, read-out: mortality of insects
Method: (§1) The test compound is made to a formulation according to the method described in the Formulation Example 5, and thereto is added water containing 0.03 v/v % of a spreader to prepare a diluted solution containing a prescribed concentration of the test compound.
The diluted solutions are sprayed into the cabbage (Brassicae oleracea) seedling (on the developmental stage of the second to third true leaf) that is planted in a container in a ratio of 20 mL/seedling. Thereafter, the stem and leaf thereof is cut out and then is installed into the container that is covered with the filter paper. Five (5) heads of cabbage moth (Plutella xylostella) at the second instar larval stages are released into the cup. After 5 days, the surviving insects are counted, and the mortality of insects is calculated by the following equation.
Morality (%)={1−the number of the surviving insects/5}×100

[3] = tested on: common house mosquito (Culex pipiens pallens); assay: Test Example 6: larvae released into diluted solution, common house mosquito; details: 24 h, last instar larvae in diluted solution, after 1 day, read-out: mortality of insects
Method: (§2) The test compound is made to a formulation according to the method described in the Formulation Example 5, and thereto is added water to prepare a diluted solution containing a prescribed concentration of the test compound.
Thirty (30) heads of last instar larvae of common house mosquito (Culex pipiens pallens) are released into the diluted solutions and after 1 day, the life and dead of common house mosquito is examined, and the mortality of insects is calculated by the following equation.
Mortality of insects (%)=((Number of dead insects/Numboer of test insects)×100

[4] = tested on: housefly (Musca domestica); assay: Test Example 4: filter paper/sucrose bait test against housefly; details: 0.7 mL on filter paper, female adult, after 24 hours, read-out: mortality of insects
Method: as §2
The bottom of the plastic cup having 5.5 cm diameter is matted with the same size of a filter paper, and 0.7 mL of the diluted solution is added dropwise to the filter paper, and 30 mg sucrose as bait is placed in the cup uniformly. Ten (10) heads of female adult housefly (Musca domestica) are released into the plastic cup, and the cup is covered with the lid. After 24 hours, the life and death of housefly is examined and the mortality of insects is determined. The mortality of insects is calculated by the following equation.
(§3) Mortality of insects (%)=(Number of dead insects/Number of test insects)×100

[5] = tested on: German cockroach (Blattella germanica); assay: Test Example 5: filter paper/sucrose bait test against German cockroach; details: 144 h, 0.7 mL on filter paper, male, after 6 days, read-out: mortality of insects
Method: as §2
The bottom of the plastic cup having 5.5 cm diameter is matted with the same size of a filter paper, and 0.7 mL of the diluted solution is added dropwise to the filter paper, and 30 mg sucrose as bait is placed in the cup uniformly. Two (2) heads of male German cockroach (Blattella germanica) are released into the plastic cup, and the cup is covered with the lid. After 6 days, the life and death of German cockroach is examined and the number of died insects is counted, and the mortality of insects is calculated by the following equation.
as §3

[6] = tested on: brown planthopper (Nilaparvata lugens); assay: Test Example 2: foliar spray on rice seedling against brown planthopper; details: 144 h, spray 10 mL/seedling on rice, 3rd instar larvae, after 6 days, read-out: mortality of insects
Method: as §1
Rice (Oryza sativa) seedling (on the developmental stage of the second true leaf) is planted in a plastic cup, and the diluted solutions are sprayed into the seedling in a ratio of 10 mL/seedling. Thereafter, 20 heads of 3rd instar larvae of brown planthopper (Nilaparvata lugens) are released onto the rice leaves. After 6 days, the morality is calculated by the following equation.
Morality (%)={1−the number of the surviving insects/20}×100

CCS(=O)(=O)c1ccc(-n2cncn2)nc1-c1nc2cc(C(F)(F)F)ncc2n1C [Present compound 1]
100%: controlling value [1] | mortality at 500 ppm [2] | mortality at 500 ppm [4] | mortality at 500 ppm [5] | mortality at 500 ppm [6]
91%: mortality at 3.5 ppm [3]
